According to PMC7156458, “Synthetic biology based construction of biological activity-related library of fungal decalin-containing diterpenoid pyrones” (Nature Communications, 2020):
Several values for one entry are separate records, joined by “and”; a condition that tells them apart may be missing. Identical values can stand only once. Like-named read-outs stand apart in the source and are kept apart here.

Assays:
Assay type in all cases: cell-based
[1] = system: human immunodeficiency virus-1 (HIV-1); experiment: anti-HIV MAGI assay; settings: anti-HIV
Description: We examined the inhibitory activities of DDPs against various species of bacteria (both gram-negative and gram-positive bacteria), fungi and viruses. […] In contrast, preliminary screening of the DDPs for anti-viral agents with hepatitis B virus (HBV), measles virus (MV), Epstein-Barr virus (EBV), herpes simplex virus (HSV) and human immunodeficiency virus-1 (HIV-1) indicated their selective inhibition of HIV.

[2] = cytotoxicity in Drosophila DL1 cells; settings: Drosophila, DL1 cells (embryonic macrophage-derived), DL1 cells
Method: (§1) We screened the DDPs on the Drosophila assay system for cytotoxicity, inhibitory activity of innate immune signalling and insecticidal activity. The cytotoxicity of the DDPs was evaluated using two cell lines, embryonic macrophage-derived DL1 cells[58]–[60] and larval blood cell-derived l(2)mbn cells, and their IC50 values are listed in Supplementary Table 23.

DL1 cells = experiment: cytotoxicity in Drosophila DL1 cells; settings: for % viability, viability 1: replicate 1, relative to DMSO 1%; for % viability, viability 2: replicate 2, relative to DMSO 1%
Method: as §1

[3] = single determinations, read-out: Efficacy (EC50)
[4] = replicate 2, relative to DMSO 1%, read-out: % viability, viability 2
[5] = replicate 1, relative to DMSO 1%, read-out: % viability, viability 1
[6] = DL1 cells, 0.04 µM, replicate 1
[7] = DL1 cells, 0.04 µM, replicate 2
[8] = Human immunodeficiency virus 1, MAGI, MAGI assay, read-out: EC50
[9] = Drosophila melanogaster, DL1 cells, cytotoxicity, average of two replicates, read-out: IC50 Average
[10] = Drosophila melanogaster, DL1 cells, cytotoxicity, replicate 1, read-out: IC50 (1)
[11] = Drosophila melanogaster, DL1 cells, cytotoxicity, replicate 2, read-out: IC50 (2)

SMILES	viability at 0.04 µM [2, 4] [%]	viability at 0.2 µM [2, 5] [%]	viability at 4 µM [2, 5] [%]	viability at 4 µM [2, 4] [%]	viability at 10 µM [2, 5] [%]	viability at 10 µM [2, 4] [%]	viability at 20 µM [2, 5] [%]	viability at 20 µM [2, 4] [%]	Luminescence Raw1 (DL1 cells; [6])	Luminescence Raw2 (DL1 cells; [7])	Luminescence Raw1 (DL1 cells; DL1 cells, 0.2 µM, replicate 1)	Luminescence Raw2 (DL1 cells; DL1 cells, 0.2 µM, replicate 2)	Luminescence Raw1 (DL1 cells; DL1 cells, 1 µM, replicate 1)	Luminescence Raw2 (DL1 cells; DL1 cells, 1 µM, replicate 2)	Luminescence Raw1 (DL1 cells; DL1 cells, 4 µM, replicate 1)	Luminescence Raw2 (DL1 cells; DL1 cells, 4 µM, replicate 2)	Luminescence Raw1 (DL1 cells; DL1 cells, 10 µM, replicate 1)	Luminescence Raw2 (DL1 cells; DL1 cells, 10 µM, replicate 2)	Luminescence Raw1 (DL1 cells; DL1 cells, 20 µM, replicate 1)	Luminescence Raw2 (DL1 cells; DL1 cells, 20 µM, replicate 2)	further results
C=C1CCC2C(C)(CCC=C(C)C)C(O)CCC2(C)C1Cc1c(O)c(C)c(C)oc1=O (stereo not drawn) [Compound 9, higginsianin B]	202	190	20.9	22.6	20.4	21.1	19.2	18	3124696	2770120	2602758	2435040	371891	463117	286075	310594	279225	288960	263360	246413	EC50 [1, 3]: > 10000 nM; % viability, viability 1 (DL1 cells; DL1 cells, 0.04 µM): 227.835%; % viability, viability 2 (DL1 cells; DL1 cells, 0.2 µM): 177.549%; % viability, viability 1 (DL1 cells; DL1 cells, 1 µM): 27.1162%; % viability, viability 2 (DL1 cells; DL1 cells, 1 µM): 33.7678%; IC50 (DL1 cells; DL1 cells, cytotoxicity, average of two replicates, read-out: IC50 Average): 361 nM; IC50 (DL1 cells; DL1 cells, cytotoxicity, average±SEM, read-out: IC50): 360 ± 30 nM; IC50 (DL1 cells; DL1 cells, cytotoxicity, replicate 1, read-out: IC50 (1)): 328 nM; IC50 (DL1 cells; DL1 cells, cytotoxicity, replicate 2, read-out: IC50 (2)): 394 nM
C=C1CC[C@H]2[C@]3(C)C[C@@H](C=C(C)C)O[C@H]3CC[C@]2(C)[C@@H]1Cc1c(O)c(C)c(C)oc1=O [Compound 5, subglutinol A]	8.13	3.78	3.94	4.03	3.69	4.2	3.33	3.4	261750	334946	155744	204060	149254	158268	162234	166201	152139	173051	137356	139880	EC50 [1, 8]: < 200 nM; EC50 ([1]; Human immunodeficiency virus 1, MAGI, average of numeric determinations, read-out: Avg. EC50): 38.9 nM; EC50 ([1]; Human immunodeficiency virus 1, MAGI, single determinations, read-out: Efficacy (EC50)): 36.3 nM; EC50 [1, 3]: 29.8 nM and 37.9 nM and 51.4 nM; viability at 0.04 µM [2, 5]: 6.35%; viability at 0.2 µM [2, 4]: 4.95%; viability at 1 µM [2, 5]: 3.62%; viability at 1 µM [2, 4]: 3.84%; IC50 (DL1 cells; [9]): < 40 nM; IC50 (DL1 cells; [10]): < 40 nM; IC50 (DL1 cells; [11]): < 40 nM; IC50 (DL1 cells; Drosophila melanogaster, DL-1 cell line, cell growth, read-out: IC50): < 40 nM
C=C1CC[C@H]2[C@]3(C)C[C@H](C=C(C)C)O[C@H]3CC[C@]2(C)[C@@H]1Cc1c(OC)oc(C)c(C)c1=O [Compound 24]	113	41.3	7.68	7.16	7.75	8.3	7.46	8.17	2516748	2332079	850222	975712	178460	208026	158268	147451	159710	170888	153581	168364	EC50 [1, 8]: < 200 nM; viability at 0.04 µM [2, 5]: 122%; viability at 0.2 µM [2, 4]: 47.4%; viability at 1 µM [2, 5]: 8.66%; viability at 1 µM [2, 4]: 10.1%; IC50 (DL1 cells; [9]): 242 nM; IC50 (DL1 cells; Drosophila melanogaster, DL1 cells, cytotoxicity, average±SEM, read-out: IC50): 240 ± 10 nM; IC50 (DL1 cells; [10]): 237 nM; IC50 (DL1 cells; [11]): 248 nM
